SMILES strings stand for the structures.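 Exposure lasted 48 hours, with cells grown in 96-well plates and compounds tested at five concentrations. GI50 = concentration required for 50% inhibition of growth. The concentration for full growth arrest is given as TGI.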

Test systems include A549 NSCLC; HT29 colon; ACHN renal; SF-539 CNS; MDA-MB-231 breast; BT-549 breast; EKVX NSCLC; MOLT-4 leukemia; M14 melanoma; SK-MEL-5 melanoma; HS 578T breast; TK-10 renal; MCF7 breast; NCI-H522 lung.
What all share (assay): growth of human tumour cells (NCI), 48 h

For the compound `COc1cc(/C=C/c2sc3ccccc3[n+]2C)ccc1N(C)C`, the GI50 in the test on A549 NSCLC is 7.08 µM; with MDA-MB-231 breast, 11.2 µM; in the test on MOLT-4 leukemia, 8.06 µM; with SK-MEL-5 melanoma it was 5.49 µM; in the test with MCF7 breast, 6.78 µM; in the test with NCI-H522 lung, 0.467 µM. Besides, the TGI in the test with A549 NSCLC is > 100 µM; in the test with HT29 colon, 32.4 µM; in the test on ACHN renal, 28.6 µM; in the test with SF-539 CNS, 31.6 µM; in the test on MDA-MB-231 breast it was 23.2 µM; with BT-549 breast, 3.7 µM. Further, the TGI in the test on EKVX NSCLC is > 100 µM; in the test on MOLT-4 leukemia, 30 µM; in the test with M14 melanoma, 27.1 µM; in the test on SK-MEL-5 melanoma, 18.5 µM; in the test on HS 578T breast, > 100 µM; in the test with TK-10 renal, 32 µM. In addition, the values for the TGI in the test on MCF7 breast and in the test on NCI-H522 lung were 19.5 µM and 15.8 µM, respectively.
Turning to `CC(=O)N1CC[N+](C)(CCCCN2c3ccccc3Sc3cc(N=[N+]=[N-])ccc32)CC1`, the TGI in the test with A549 NSCLC, in the test on HT29 colon, with ACHN renal, with SF-539 CNS, in the test with MDA-MB-231 breast and in the test on BT-549 breast was > 100 µM throughout. The TGI in the test on EKVX NSCLC, with MOLT-4 leukemia, in the test with M14 melanoma, with SK-MEL-5 melanoma, with HS 578T breast and in the test on TK-10 renal was > 100 µM in each case. The TGI in the test on MCF7 breast and with NCI-H522 lung was > 100 µM throughout.
For the compound `N#CC(C#N)=Cc1ccc(C=C2SC3=C(SCCS3)S2)s1`, the TGI is > 100 µM with A549 NSCLC; > 100 µM in the test with HT29 colon; > 100 µM in the test with ACHN renal; 28.1 µM with SF-539 CNS; > 100 µM in the test on MDA-MB-231 breast; 15.2 µM in the test with BT-549 breast. Besides, the TGI in the test with EKVX NSCLC is > 100 µM; in the test on MOLT-4 leukemia, > 100 µM; in the test with M14 melanoma, > 100 µM; with SK-MEL-5 melanoma, > 100 µM; in the test on HS 578T breast it was > 100 µM; with TK-10 renal, 68.6 µM. The TGI in the test on MCF7 breast and in the test on NCI-H522 lung was > 100 µM throughout.
Turning to `COc1ccc(C(=O)/C=C/c2ccc(OCC(=O)O)cc2)cc1`, the TGI in the test with A549 NSCLC, in the test with HT29 colon, with ACHN renal, in the test with SF-539 CNS, with MDA-MB-231 breast and in the test on BT-549 breast was > 100 µM in each case. The TGI in the test with EKVX NSCLC, with MOLT-4 leukemia, in the test on M14 melanoma, in the test on SK-MEL-5 melanoma, with HS 578T breast and in the test with TK-10 renal was > 100 µM in each case. In addition, the TGI in the test on MCF7 breast and with NCI-H522 lung was > 100 µM in each case.
As to `CCOC(=O)/C=C(\C(=O)OCC)n1cnc2c(N)ncnc21`, the TGI worked out at 32.2 µM in the test on A549 NSCLC; 23.1 µM in the test with HT29 colon; 18.5 µM with ACHN renal; 29.3 µM in the test with SF-539 CNS; 21.8 µM with MDA-MB-231 breast; 27.3 µM in the test on BT-549 breast. Also, the TGI in the test with EKVX NSCLC came to 30.7 µM; in the test on MOLT-4 leukemia, 6.89 µM; in the test on M14 melanoma it was 22.7 µM; in the test on SK-MEL-5 melanoma, 28.6 µM; with HS 578T breast, 51.5 µM; in the test on TK-10 renal, 17.3 µM. In addition, the figures for the TGI in the test with MCF7 breast and in the test on NCI-H522 lung were 11.9 µM and 6.09 µM, respectively.
As for `Cc1cc(C)nc(NS(=O)(=O)c2ccc(NNC(=O)c3cccc4c(NNc5ccc(S(=O)(=O)Nc6nc(C)cc(C)n6)cc5)c5ccccc5nc34)cc2)n1`, the TGI in the test on A549 NSCLC was 96.8 µM; in the test with HT29 colon it was 37.8 µM; in the test with ACHN renal, 33.3 µM; in the test on SF-539 CNS it was 43.6 µM; in the test on MDA-MB-231 breast it was 44.9 µM; in the test on BT-549 breast, 71.4 µM. The TGI with EKVX NSCLC turned out to be 40.5 µM; in the test on MOLT-4 leukemia, 66.8 µM; with M14 melanoma it was 32.6 µM; in the test on SK-MEL-5 melanoma it was 33 µM; in the test on HS 578T breast it was 71.9 µM; in the test on TK-10 renal, 67.7 µM. The results for the TGI in the test on MCF7 breast and in the test on NCI-H522 lung were 62.4 µM and 40.8 µM, respectively.
With `O=C1OC2c3ccccc3C(=O)C2(c2ccccc2)N1c1ccccc1` (configuration not stated), the TGI in the test on A549 NSCLC, in the test with HT29 colon, in the test with ACHN renal, in the test with SF-539 CNS, in the test with MDA-MB-231 breast and in the test on BT-549 breast was > 200 µM throughout. The TGI with EKVX NSCLC, with MOLT-4 leukemia, with M14 melanoma, in the test on SK-MEL-5 melanoma, in the test with HS 578T breast and in the test with TK-10 renal was > 200 µM each time. The TGI in the test on MCF7 breast and in the test on NCI-H522 lung was > 200 µM throughout.
Turning to `COc1ccc(/C=C(\C(=O)OCC(C)C)c2ccc(OC)c(OC)c2)cc1OC`, the TGI is > 100 µM with A549 NSCLC; > 100 µM in the test with HT29 colon; > 100 µM with ACHN renal; > 100 µM with SF-539 CNS; 61.5 µM in the test with MDA-MB-231 breast; > 100 µM in the test with BT-549 breast. For the same compound, the TGI in the test with EKVX NSCLC, with MOLT-4 leukemia, with M14 melanoma, with SK-MEL-5 melanoma, with HS 578T breast and in the test with TK-10 renal was > 100 µM in each case. The TGI in the test with MCF7 breast and in the test with NCI-H522 lung was > 100 µM throughout.
As for `CCN(CC)c1nc(N(C)C)c2ccc(OC)cc2n1`, the TGI in the test with A549 NSCLC was > 100 µM; with HT29 colon, 26.1 µM; in the test on ACHN renal, 59.6 µM; with SF-539 CNS, 49.6 µM; with MDA-MB-231 breast it was 75.8 µM; in the test with BT-549 breast it was 64.8 µM. Also, the TGI in the test with EKVX NSCLC is 21.8 µM; in the test on MOLT-4 leukemia it was 22.1 µM; in the test on M14 melanoma, 22.2 µM; in the test on SK-MEL-5 melanoma it was 24.7 µM; in the test on HS 578T breast, > 100 µM; with TK-10 renal it was > 100 µM. Also, the TGI in the test with MCF7 breast was 25 µM; in the test on NCI-H522 lung, 30.3 µM.

Values taken from PubChem BioAssay (NCI).
